Tested on: greasy skin
Experiment: in vivo panel test with a cosmetic composition on greasy skin
Conditions: cosmetic composition comprising the compound

For `CCCCCC1C(O)CCC1CC(=O)O` (stereo not shown) [3-hydroxy-2-pentylcyclopentaneacetic acid], the “efficacy for treating greasy skin” value was “revealed the efficacy of the compound for treating greasy skin”.

Reference: patent publication US9138389B2, “Use of a jasmonic acid compound for treating greasy skin” (L'OREAL, priority 2009, dated 2015)
